Laboratory results from ChEMBL document CHEMBL1145334, “Structural determinants of Torpedo californica acetylcholinesterase inhibition by the novel and orally active carbamate based anti-alzheimer drug ganstigmine (CHF-2819)” (J Med Chem, 2006).
pIC50: −log10 of the molar value. Counter-ions that a name gives are not always drawn.

Key:
Acetylcholinesterase = Acetylcholinesterase (Torpedo californica, UniProt P04058); assay: Inhibition of Torpedo californica AChE; set-up: species or system Tetronarce californica
Sequence of Acetylcholinesterase (P04058 whole entry): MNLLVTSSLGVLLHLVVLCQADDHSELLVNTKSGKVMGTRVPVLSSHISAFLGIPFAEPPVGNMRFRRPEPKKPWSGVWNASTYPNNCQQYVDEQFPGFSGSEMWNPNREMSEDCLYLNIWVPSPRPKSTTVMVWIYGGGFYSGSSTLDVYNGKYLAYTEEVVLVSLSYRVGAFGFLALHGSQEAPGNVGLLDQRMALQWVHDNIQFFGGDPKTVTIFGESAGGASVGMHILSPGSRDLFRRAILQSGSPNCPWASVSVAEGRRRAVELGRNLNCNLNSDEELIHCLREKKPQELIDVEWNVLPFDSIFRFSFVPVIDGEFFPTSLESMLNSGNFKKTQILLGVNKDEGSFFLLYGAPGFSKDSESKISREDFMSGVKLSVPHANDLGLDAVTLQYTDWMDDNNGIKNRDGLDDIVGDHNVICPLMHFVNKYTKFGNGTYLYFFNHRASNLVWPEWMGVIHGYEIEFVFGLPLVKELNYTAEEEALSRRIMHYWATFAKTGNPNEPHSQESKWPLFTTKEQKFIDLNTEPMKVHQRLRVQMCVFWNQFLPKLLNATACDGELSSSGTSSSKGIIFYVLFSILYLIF

[1] = target: T1, Acetylcholinesterase (Mus musculus) (UniProt P21836); settings: CD1, Brain, 1.5 mg/kg
T1 sequence (whole entry): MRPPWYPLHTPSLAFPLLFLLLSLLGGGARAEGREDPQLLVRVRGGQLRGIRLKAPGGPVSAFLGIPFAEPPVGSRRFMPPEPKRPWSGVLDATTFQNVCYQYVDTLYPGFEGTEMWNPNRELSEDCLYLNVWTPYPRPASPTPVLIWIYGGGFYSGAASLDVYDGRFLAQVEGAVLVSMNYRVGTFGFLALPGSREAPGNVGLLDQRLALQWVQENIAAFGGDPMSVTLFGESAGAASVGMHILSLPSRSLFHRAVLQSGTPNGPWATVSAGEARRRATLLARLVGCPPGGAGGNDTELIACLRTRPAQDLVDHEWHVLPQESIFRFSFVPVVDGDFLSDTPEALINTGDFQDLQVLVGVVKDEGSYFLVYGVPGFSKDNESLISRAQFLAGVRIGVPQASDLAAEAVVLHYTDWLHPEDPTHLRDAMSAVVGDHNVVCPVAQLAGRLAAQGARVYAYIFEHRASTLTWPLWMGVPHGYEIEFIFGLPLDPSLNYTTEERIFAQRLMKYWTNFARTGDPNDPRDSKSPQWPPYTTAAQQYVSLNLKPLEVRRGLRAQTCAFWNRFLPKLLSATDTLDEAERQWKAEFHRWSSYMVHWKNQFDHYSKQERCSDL
Description: Inhibition of AChE in CD1 mouse brain at 1.5 mg/kg, po after 4 hrs

Row | Compound | pIC50 (Acetylcholinesterase) | inhibition [1] [%]
1 | Cc1cc(C)cc(NC(=O)Oc2ccc3c(c2)[C@]2(C)CC[N+](C)([O-])[C@@H]2N3C)c1 (stereo partly drawn) | 5.07 | 
2 | CCc1cccc(NC(=O)Oc2ccc3c(c2)[C@]2(C)CC[N+](C)([O-])[C@@H]2N3C)c1 (stereo partly drawn) | 5.01 | 
3 | CC(C)c1ccccc1NC(=O)Oc1ccc2c(c1)[C@]1(C)CC[N+](C)([O-])[C@@H]1N2C (stereo partly drawn) | 5.08 | 
4 | CN1c2ccc(OC(=O)Nc3ccccc3)cc2[C@]2(C)CC[N+](C)([O-])[C@H]12 (stereo partly drawn) | 5.32 | 
5 | CCc1ccccc1NC(=O)Oc1ccc2c(c1)[C@]1(C)CC[N+](C)([O-])[C@@H]1N2C (stereo partly drawn) | 5.29 | 
6 | CCCc1ccccc1NC(=O)Oc1ccc2c(c1)[C@]1(C)CC[N+](C)([O-])[C@@H]1N2C (stereo partly drawn) | 5.07 | 
7 | Cc1ccc(NC(=O)Oc2ccc3c(c2)[C@]2(C)CC[N+](C)([O-])[C@@H]2N3C)cc1 (stereo partly drawn) | 5.12 | 
8 | Cc1cccc(NC(=O)Oc2ccc3c(c2)[C@]2(C)CC[N+](C)([O-])[C@@H]2N3C)c1 (stereo partly drawn) | 5.29 | 
9 | Cc1ccccc1NC(=O)Oc1ccc2c(c1)[C@]1(C)CC[N+](C)([O-])[C@@H]1N2C (stereo partly drawn) | 5.39 | 
10 | Cc1cccc(C)c1NC(=O)Oc1ccc2c(c1)[C@]1(C)CC[N+](C)([O-])[C@@H]1N2C (stereo partly drawn) | 3.73 | 
11 | CCN(C)C(=O)Oc1cccc([C@H](C)N(C)C)c1 [RIVASTIGMINE TARTRATE] | 3.73 | 73
12 | CNC(=O)Oc1ccc2c(c1)[C@]1(C)CC[N+](C)([O-])[C@@H]1N2C (stereo partly drawn) [GENESERINE] | 5.76 | 
